Assay results: the supplement of paper PMC10307832

Key:
Test in all cases: relative viability (nuclei count vs DMSO), 5 days (fraction); higher = more cells survive
[1] = compound: CC1=CC=C(C=C1)C(=O)CN2C3=C(CCCC3)SC2=N [Pifithrin_alpha] + CS(=O)(=O)CCNCc1ccc(-c2ccc3ncnc(Nc4ccc(OCc5cccc(F)c5)c(Cl)c4)c3c2)o1 [Lapatinib] (partner 2 µM)
Method in brief: (§1)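 Dosing by pin tool came one day after lung cancer cell lines were seeded in 1536-well plates, using either one drug or a fixed anchor-drug dose plus five library-drug doses (not always all listed) in √10 steps. After 5 days, nuclei were counted on 4× images. Relative viability is treated-well nuclei count divided by vehicle-well nuclei count, and values are medians of duplicate plates.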

Bemcentinib + Pictilisib = compound: Nc1nc(Nc2ccc3c(c2)CC[C@@H](N2CCCC2)CC3)nn1-c1cc2c(nn1)-c1ccccc1CCC2 [Bemcentinib] + CS(=O)(=O)N1CCN(Cc2cc3nc(-c4cccc5[nH]ncc45)nc(N4CCOCC4)c3s2)CC1 [Pictilisib] (partner 1 µM)
Method in brief: as §1

[2] = compound: CC1=CC=C(C=C1)C(=O)CN2C3=C(CCCC3)SC2=N [Pifithrin_alpha] + CS(=O)(=O)N1CCN(Cc2cc3nc(-c4cccc5[nH]ncc45)nc(N4CCOCC4)c3s2)CC1 [Pictilisib] (partner 1 µM)
Method in brief: as §1

Bemcentinib + Decitabine = compound: Nc1nc(Nc2ccc3c(c2)CC[C@@H](N2CCCC2)CC3)nn1-c1cc2c(nn1)-c1ccccc1CCC2 [Bemcentinib] + Nc1ncn([C@H]2C[C@H](O)[C@@H](CO)O2)c(=O)n1 [Decitabine] (partner 2 µM)
Method in brief: as §1

Cell Line	relative viability ([1]; first compound 1 µM)	relative viability ([1]; first compound 3.162 µM)	relative viability ([1]; first compound 10 µM)	relative viability ([1]; first compound 31.62 µM)	relative viability ([1]; first compound 100 µM)	relative viability (Bemcentinib + Pictilisib; first compound 0.04 µM)	relative viability (Bemcentinib + Pictilisib; first compound 0.1265 µM)	relative viability (Bemcentinib + Pictilisib; first compound 0.4 µM)	relative viability (Bemcentinib + Pictilisib; first compound 1.265 µM)	relative viability (Bemcentinib + Pictilisib; first compound 4 µM)	relative viability ([2]; first compound 1 µM)	relative viability ([2]; first compound 3.162 µM)	relative viability ([2]; first compound 10 µM)	relative viability ([2]; first compound 31.62 µM)	relative viability ([2]; first compound 100 µM)	relative viability (Bemcentinib + Decitabine; first compound 0.04 µM)	relative viability (Bemcentinib + Decitabine; first compound 0.1265 µM)	relative viability (Bemcentinib + Decitabine; first compound 0.4 µM)	relative viability (Bemcentinib + Decitabine; first compound 1.265 µM)	relative viability (Bemcentinib + Decitabine; first compound 4 µM)
NCI-H3122	1.11	1.04	1.05	0.837	1.01	0.234	0.62	0.579	0.699	0.646	0.628	0.596	0.577	0.563	0.732	0.429	0.385	0.456	0.449	0.491
PC-3 [JPC-3]	0.392	0.421	0.401	0.414	0.326	0.724	0.933	0.802	0.764	0.732	0.547	0.757	0.629	0.569	0.597	0.773	0.897	0.804	0.822	0.804
PC-14	0.337	0.32	0.265	0.271	0.15	0.651	0.792	0.628	0.509	0.704	0.764	0.674	0.645	0.495	0.563	0.209	0.213	0.204	0.176	0.197
RERF-LC-KJ	0.819	0.865	0.836	0.747	0.768	0.535	0.575	0.652	0.562	0.572	0.535	0.397	0.503	0.451	0.432	0.676	0.729	0.784	0.855	0.752
